US20220016196A1, “Aloe Based Compositions Comprising Polysaccharides and Polyphenols for Regulation of Homeostasis of Immunity” (Unigen, Inc., priority 2020, published 2022)

Test system: LPS-induced septic mice
Test: LPS induced sepsis model, survival/mortality rate
Type: in vivo, mouse
Details: for # of Death after LPS: cumulative; for Number of deceased animals post LPS: per interval
Experimental: CD-1 mice were purchased from a USDA approved vendor. Male CD-1 mice at 8 weeks old were purchased form Charles River Laboratories, Inc. (Wilmington, Mass.). Animals were acclimated upon arrival and used for the study at the age of 11 weeks. At the time of the study animals average weigh 33.6±2.4 grams. They were housed in a temperature-controlled room (71-72° F.) on a 12-hour light-dark cycle and provided with feed and water ad libitum.
This model used a survival/mortality rate of animals as the end point measurement (Wang et al., 1999). LPS, an exogenous assault trigger, is an integral component of the outer membrane of gram-negative bacteria and a major contributing factor in the initiation of a generalized inflammatory process that could lead to endotoxic shock. It is a state mediated principally by macrophages/monocytes attributed to excessive production of several early phase cytokines such as TNF, IL-1, IL-6 and gamma interferon as well as a late stage mediator HMGB1. Following median lethal dose of LPS (25 mg/kg) administration dissolved in Phosphate buffered saline (PBS; Lifeline, Lot #07641), animals develop endotoxemia and HMGB1 would be detected in the serum at 8 hours and reach to a peak and plateau levels from 16 to 32 hours after LPS. If untreated, mice would start to die within 24 hours. In the current study, we monitored the mice for 4 days after LPS injection. The survival/mortality rate compared LPS +Sodium butyrate (SB; Aldrich, St. Louis, Mo.; lot #MKCG7272), LPS+Vehicle (0.5% CMC; Spectrum, New Brunswick, N.J.; lot #1IJ0127) and LPS+UP360 (Aloe based composition comprising polysaccharides and polyphenols made in Example 9). The following groups were included in the study:
In this model, mice were pretreated with UP360 illustrated in the Example 9 for a week (7 days) before lethal dose intraperitoneal injection of LPS (E. coli, 055:B5; Sigma, St. Louis, Mo.; Lot #081275) at 25 mg/kg with a 10 mL/kg PBS volume. Animals were observed hourly. Given the fact that Sodium butyrate improved LPS-induced injury in mice through suppression of HMGB1 release, we chose this compound as a positive control for our study (Li et al., 2018).
Male CD-1 mice (n=13) were treated with Aloe, Poria, and Rosmarinic acid (RA) utilized for making UP360 in Example 9 at 150 mg/kg, 300 mg/kg and 50 mg/kg, respectively, for 7 days before LPS injection. On the 8th day, mice were injected with 25 mg/kg LPS dissolved in PBS at 10 mL/kg intraperitoneally. Mice in the UP360-treated group received a daily dose of UP360 at 500 mg/kg. All mice continued to receive the respective treatment daily for the duration of the study. Following median lethal dose of LPS (25 mg/kg) i.p. administration, animals are expected to develop sepsis within a few hours. If untreated, mice would start to die within 24 hours. Animals were observed hourly. In the current study, we monitored the mice for 6 days after LPS injection. The survival rate compared LPS+Sodium butyrate (SB), LPS+Vehicle (0.5% CMC), LPS+UP360, LPS+Aloe, LPS+Poria and LPS+Rosmarinic acid. Normal control animals received only PBS intraperitoneally and gavaged only with the carrier vehicle 0.5% CMC. Given the fact that Sodium butyrate (SB) improved LPS-induced injury in mice through suppression of HMGB1 release, we chose this compound as a positive control for our study (Li et al., 2018).
The survival rate and mortality rate of the contemplated Aloe-based compositions, including UP360, comprising and, in some embodiments, consisting of polysaccharides and polyphenols was compared with those dosages of individual extracts as they appear in the formulation to find out potential additive, antagonist or synergistic effects in combination using Colby's equation (Colby, 1967). For the blending of these plant extracts to have unexpected synergy, the observed inhibition needs to be greater than the calculated value.

[1] = n=13 study, doses as E61, 24 hr
[2] = n=13 study, doses as E61, 36 hr
[3] = n=13 study, doses as E61, 48 hr
[4] = n=13 study, doses as E61, 60 hr
[5] = n=13 study, doses as E61, 72 hr
[6] = n=13 study, doses as E61, 96 hr
[7] = n=13 study, doses as E61, 120 hr
[8] = n=13 study, doses as E61, 144 hr

SMILES: CCCC(=O)[O-].[Na+] [Sodium Butyrate]
- # of Death after LPS (CD-1 mice n=8, LPS 25 mg/kg i.p., 500 mg/kg oral from 7 days before, 24 hr): 2
- Number of deceased animals post LPS (CD-1 mice n=13, LPS 25 mg/kg i.p., oral UP360/SB 500, Aloe 150, Poria 300, RA 50 mg/kg, 24 hpi): 2
- MR (%) (mortality rate, n=13 study, doses as E49, end of study): 69.2%
- # of Death after LPS, Total (n=8, LPS 25 mg/kg i.p., 500 mg/kg oral): 4
- survival rate (n=8, LPS 25 mg/kg i.p., 500 mg/kg oral, 24 hours after LPS): 75%
- survival rate (n=8, LPS 25 mg/kg i.p., 500 mg/kg oral, 34 hours after LPS): 62.5%
- survival rate (n=8, LPS 25 mg/kg i.p., 500 mg/kg oral, 48 hours after LPS): half of the animals were deceased
- survival rate (n=8, LPS 25 mg/kg i.p., 500 mg/kg oral, 72 hours after LPS): 50%
- # of Death after LPS (n=8, LPS 25 mg/kg i.p., 500 mg/kg oral, 32 hr): 3
- # of Death after LPS (n=8, LPS 25 mg/kg i.p., 500 mg/kg oral, 34 hr): 3
- # of Death after LPS (n=8, LPS 25 mg/kg i.p., 500 mg/kg oral, 48 hr): 4
- # of Death after LPS (n=8, LPS 25 mg/kg i.p., 500 mg/kg oral, 58 hr): 4
- # of Death after LPS (n=8, LPS 25 mg/kg i.p., 500 mg/kg oral, 72 hr): 4
- # of Death after LPS (n=8, LPS 25 mg/kg i.p., 500 mg/kg oral, 82 hr): 4
- Survival rate (%) (n=8, LPS 25 mg/kg i.p., 500 mg/kg oral, final (82 hours, same at 96 and 120 hours)): 50%
- Survival rate (%) (n=13, LPS 25 mg/kg i.p., UP360/Sodium Butyrate 500, Aloe 150, Poria 300, RA 50 mg/kg, 0 hr): 100%
- Survived (n=13 study, doses as E49, at 144 hpi): 4
- Number of deceased animals post LPS (n=13 study, doses as E49, 36 hpi): 4
- Number of deceased animals post LPS (n=13 study, doses as E49, 48 hpi): 1
- Number of deceased animals post LPS (n=13 study, doses as E49, 60 hpi): 1
- Number of deceased animals post LPS (n=13 study, doses as E49, 72 hpi): 0
- Number of deceased animals post LPS (n=13 study, doses as E49, 96 hpi): 1
- Number of deceased animals post LPS (n=13 study, doses as E49, 120 hpi): 0
- Number of deceased animals post LPS (n=13 study, doses as E49, 144 hpi): 0
- Deceased (n=13 study, doses as E49, total over 144 hpi): 9
- Mortality rate (%) (n=13 study, doses as E61, 0 hr): 0.0%
- Mortality rate (%) [1]: 15.4%
- Survival rate (%) [1]: 84.6%
- Mortality rate (%) [2]: 46.2%
- Survival rate (%) [2]: 53.8%
- Mortality rate (%) [3]: 53.8%
- Survival rate (%) [3]: 46.2%
- Mortality rate (%) [4]: 61.5%
- Survival rate (%) [4]: 38.5%
- Mortality rate (%) [5]: 61.5%
- Survival rate (%) [5]: 38.5%
- Mortality rate (%) [6]: 69.2%
- Survival rate (%) [6]: 30.8%
- Mortality rate (%) [7]: 69.2%
- Survival rate (%) [7]: 30.8%
- Mortality rate (%) [8]: 69.2%
- Survival rate (%) [8]: 30.8%
- SR (%) (survival rate, n=13 study, doses as E49, end of study): 30.8%
